Results published in patent publication US12281149B2, “Modulators of G-protein coupled receptors” (priority 2021, dated 2025).
pEC50: −log10 of the molar value. *1 amine or outer side, *2 acyl side, *3 side chain or, on linkers, in order; H or OH if unused. Where a SMILES comes first, the peptide text is derived from it. Side-chain parts run from the residue outwards. [ ]: non-standard residue; d: D form. The star is where a group is joined. Isobutyryl(2-(3-CN-5-F-Ph)) = CC(C)(C(=O)*)c1cc(F)cc(C#N)c1; C20 diacid = O=C(O)CCCCCCCCCCCCCCCCCCC(=O)*; X74 = CC(C)(C(=O)*)c1cc(F)cc(C(F)(F)F)c1; γGlu = O=C(O)[C@H](CCC(=O)[*:2])N[*:1]; X9 = CC(C)(C(=O)*)c1cc(F)cc(C(=O)O)c1; X19 = O=C1COc2ccccc2N1CCNCCC(=O)*; X76 = CC(C)(C(=O)*)c1cncnc1; AEEA = NCCOCCOCC(=O)O; Aib = CC(C)(N)C(=O)O; βAla = NCCC(=O)O

Tests used:
Assay type in all cases: cell-based
GIP receptor [1] = target: T1, GIP receptor (Homo sapiens, UniProt P48546); assay: PathHunter β-arrestin assay, GIP receptor; parameters: host or cells: PathHunter CHO-K1 GIPR β-Arrestin Cell Line; details: β-arrestin-2 recruitment, PathHunter CHO-K1 GIPR β-Arrestin Cell Line, 90 min at 37° C.; normalized to GIP; read-out: GIPR β Arrestin EC50
T1 sequence (P48546 22-466): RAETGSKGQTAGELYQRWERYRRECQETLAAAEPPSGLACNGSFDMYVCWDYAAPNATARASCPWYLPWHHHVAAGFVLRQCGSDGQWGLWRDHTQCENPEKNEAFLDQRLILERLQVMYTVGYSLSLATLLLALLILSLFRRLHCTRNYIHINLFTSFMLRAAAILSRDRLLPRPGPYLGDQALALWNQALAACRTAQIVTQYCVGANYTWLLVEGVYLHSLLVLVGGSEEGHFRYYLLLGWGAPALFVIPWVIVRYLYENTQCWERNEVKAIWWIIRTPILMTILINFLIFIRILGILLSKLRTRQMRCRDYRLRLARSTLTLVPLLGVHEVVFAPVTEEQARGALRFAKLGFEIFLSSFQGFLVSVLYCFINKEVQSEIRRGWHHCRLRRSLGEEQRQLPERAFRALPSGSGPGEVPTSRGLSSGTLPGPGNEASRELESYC

GLP-1 receptor [2] = target: T2, GLP-1 receptor (Homo sapiens, UniProt P43220); assay: HitHunter cAMP assay, GLP-1 receptor; details: for pEC50: CHO cells stably expressing human GLP-1 receptor, cAMP accumulation, 30 min, read-out: EC50 GLP-1R; for Emax: CHO cells, cAMP, normalized to maximum signal from GLP-1 (high) and DMSO (low), read-out: Emax GLP-1R
GIP receptor [3] = target: T1, GIP receptor; assay: HitHunter cAMP assay, GIP receptor; details: for pEC50: CHO cells stably expressing GIP receptor, cAMP accumulation, 30 min, read-out: EC50 GIP-1R; for Emax: CHO cells, cAMP, normalized to maximum signal from GIP (high) and DMSO (low), read-out: Emax GIP-1R
Experimental: CAMP accumulation was measured in Chinese hamster ovary (CHO) cells stably expressing the human GLP-1 receptor or GIP receptor using the HitHunter CAMP Assay for Small Molecules Kit (Eurofins). Briefly, cells were grown in Ham's F12 Nutrient Mix with 10% FBS and lifted with Cell dissociation buffer, Enzyme free, PBS based (ThermoFisher). Cells were pelleted and resuspended in Hank's buffered saline solution with 10 mM Hepes and 625 μM 3-isobutyl-1-methylxanthine. The antibody reagent was then added to cells at a 1:2 ratio and 5 μL of mixture was seeded in 384-well small volume white assay plates, at 10,000 cells/well. Cells were then treated with 50 nl compound in DMSO using an ECHO 550 acoustic dispenser (Labcyte) in a 20-point dose response format in triplicate for 30 min. Cells were the lysed and detection reagents added according to the manufacturer's protocol. After overnight incubation, luminescence was measured using a Perkin Elmer Envision plate reader. Raw data was normalized to the maximum signal from GLP-1 or GIP (high) and DMSO (low). Dose response curves were analyzed using GraphPad Prism 9.0.

GLP-1 receptor [4] = target: T2, GLP-1 receptor; assay: PathHunter β-arrestin assay, GLP-1 receptor; parameters: host or cells: PathHunter CHO-K1 GLP1R β-Arrestin Cell Line; details: β-arrestin-2 recruitment, PathHunter CHO-K1 GLP1R β-Arrestin Cell Line, 90 min at 37° C.; normalized to GLP-1; read-out: GLP-1R β Arrestin EC50

T2 sequence (P43220 24-463): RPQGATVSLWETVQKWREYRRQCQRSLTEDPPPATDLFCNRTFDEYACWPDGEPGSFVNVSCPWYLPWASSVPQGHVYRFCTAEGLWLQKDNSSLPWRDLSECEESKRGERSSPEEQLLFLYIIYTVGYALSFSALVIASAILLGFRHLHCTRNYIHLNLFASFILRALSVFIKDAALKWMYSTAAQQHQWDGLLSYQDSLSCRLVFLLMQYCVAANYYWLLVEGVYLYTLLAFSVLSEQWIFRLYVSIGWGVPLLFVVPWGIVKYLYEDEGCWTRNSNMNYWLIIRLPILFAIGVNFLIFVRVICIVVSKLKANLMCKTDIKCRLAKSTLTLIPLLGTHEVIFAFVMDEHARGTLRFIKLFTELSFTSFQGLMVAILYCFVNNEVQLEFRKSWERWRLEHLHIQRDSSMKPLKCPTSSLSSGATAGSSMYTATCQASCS

Row | SMILES | pEC50 (GIP receptor [1]) | pEC50 (GLP-1 receptor [2]) | Emax (GLP-1 receptor [2]) [%] | pEC50 (GIP receptor [3]) | Emax (GIP receptor [3]) [%] | pEC50 (GLP-1 receptor [4])
1 | CC[C@H](C)[C@H](NC(=O)[C@H](CC(C)C)NC(=O)[C@H](Cc1c[nH]c2ccccc12)NC(=O)[C@H](CCC(N)=O)NC(=O)[C@@H](NC(=O)[C@H](Cc1ccccc1)NC(=O)[C@H](C)NC(=O)[C@H](CCCCNC(=O)COCCOCCNC(=O)COCCOCCNC(=O)CC[C@H](NC(=O)CCCCCCCCCCCCCCCCCCC(=O)O)C(=O)O)NC(=O)[C@H](CCC(N)=O)NC(=O)[C@H](C)NC(=O)[C@@H](NC(=O)[C@H](CCCCN)NC(=O)[C@H](CC(=O)O)NC(=O)[C@H](CC(C)C)NC(=O)C(C)(C)NC(=O)[C@@H](NC(=O)[C@H](CO)NC(=O)[C@H](Cc1ccc(O)cc1)NC(=O)[C@H](CC(=O)O)NC(=O)[C@H](CO)NC(=O)[C@@H](NC(=O)[C@H](Cc1ccccc1)NC(=O)[C@@H](NC(=O)CNC(=O)[C@H](CCC(=O)O)NC(=O)CCNC(=O)C(C)(C)c1cncnc1)[C@@H](C)O)[C@@H](C)O)[C@@H](C)CC)[C@@H](C)CC)C(C)C)C(=O)N[C@@H](C)C(=O)NCC(=O)NCC(=O)N1CCC[C@H]1C(=O)N[C@@H](CO)C(=O)N[C@@H](CO)C(=O)NCC(=O)N[C@@H](C)C(=O)N1CCC[C@H]1C(=O)N1CCC[C@H]1C(=O)N1CCC[C@H]1C(=O)N[C@@H](CO)C(N)=O [Compound 161] ({X76-βAla}-EGTFTSDYSI[Aib]LDKIAQK([AEEA-AEEA-γGlu-C20 diacid])AFVQWLIAGGPSSGAPPPS-NH2) | < 6.00 | 9.00 to 10.00 | 113 | 7.00 to 8.00 | 94 | < 6.00
2 | CC[C@H](C)[C@H](NC(=O)[C@H](CC(C)C)NC(=O)[C@H](Cc1c[nH]c2ccccc12)NC(=O)[C@H](CCC(N)=O)NC(=O)[C@@H](NC(=O)[C@H](Cc1ccccc1)NC(=O)[C@H](C)NC(=O)[C@H](CCCCNC(=O)COCCOCCNC(=O)COCCOCCNC(=O)CC[C@H](NC(=O)CCCCCCCCCCCCCCCCCCC(=O)O)C(=O)O)NC(=O)[C@H](CCC(N)=O)NC(=O)[C@H](C)NC(=O)[C@@H](NC(=O)[C@H](CCCCN)NC(=O)[C@H](CC(=O)O)NC(=O)[C@H](CC(C)C)NC(=O)C(C)(C)NC(=O)[C@@H](NC(=O)[C@H](CO)NC(=O)[C@H](Cc1ccc(O)cc1)NC(=O)[C@H](CC(=O)O)NC(=O)[C@H](CO)NC(=O)[C@@H](NC(=O)[C@H](Cc1ccccc1)NC(=O)[C@@H](NC(=O)CNC(=O)[C@H](CCC(=O)O)NC(=O)CCNC(=O)C(C)(C)c1cc(F)cc(C(F)(F)F)c1)[C@@H](C)O)[C@@H](C)O)[C@@H](C)CC)[C@@H](C)CC)C(C)C)C(=O)N[C@@H](C)C(=O)NCC(=O)NCC(=O)N1CCC[C@H]1C(=O)N[C@@H](CO)C(=O)N[C@@H](CO)C(=O)NCC(=O)N[C@@H](C)C(=O)N1CCC[C@H]1C(=O)N1CCC[C@H]1C(=O)N1CCC[C@H]1C(=O)N[C@@H](CO)C(N)=O [Compound 119] ({X74-βAla}-EGTFTSDYSI[Aib]LDKIAQK([AEEA-AEEA-γGlu-C20 diacid])AFVQWLIAGGPSSGAPPPS-NH2) | < 6.00 | 8.00 to 9.00 | 102 | 7.00 to 8.00 | 99 | < 6.00
3 | CC[C@H](C)[C@H](NC(=O)[C@H](CC(C)C)NC(=O)[C@H](Cc1c[nH]c2ccccc12)NC(=O)[C@H](CCC(N)=O)NC(=O)[C@@H](NC(=O)[C@H](Cc1ccccc1)NC(=O)[C@H](C)NC(=O)[C@H](CCCCNC(=O)COCCOCCNC(=O)COCCOCCNC(=O)CC[C@H](NC(=O)CCCCCCCCCCCCCCCCCCC(=O)O)C(=O)O)NC(=O)[C@H](CCC(N)=O)NC(=O)[C@H](C)NC(=O)[C@@H](NC(=O)[C@H](CCCCN)NC(=O)[C@H](CC(=O)O)NC(=O)[C@H](CC(C)C)NC(=O)C(C)(C)NC(=O)[C@@H](NC(=O)[C@H](CO)NC(=O)[C@H](Cc1ccc(O)cc1)NC(=O)[C@H](CC(=O)O)NC(=O)[C@H](CO)NC(=O)[C@@H](NC(=O)[C@H](Cc1ccccc1)NC(=O)[C@@H](NC(=O)CNC(=O)[C@H](CCC(=O)O)NC(=O)CCNC(=O)C(C)(C)c1cc(F)cc(C(=O)O)c1)[C@@H](C)O)[C@@H](C)O)[C@@H](C)CC)[C@@H](C)CC)C(C)C)C(=O)N[C@@H](C)C(=O)NCC(=O)NCC(=O)N1CCC[C@H]1C(=O)N[C@@H](CO)C(=O)N[C@@H](CO)C(=O)NCC(=O)N[C@@H](C)C(=O)N1CCC[C@H]1C(=O)N1CCC[C@H]1C(=O)N1CCC[C@H]1C(=O)N[C@@H](CO)C(N)=O [Compound 139] ({X9-βAla}-EGTFTSDYSI[Aib]LDKIAQK([AEEA-AEEA-γGlu-C20 diacid])AFVQWLIAGGPSSGAPPPS-NH2) | < 6.00 | 8.00 to 9.00 | 102 | 7.00 to 8.00 | 109 | < 6.00
4 | CC[C@H](C)[C@H](NC(=O)[C@H](CO)NC(=O)[C@H](Cc1ccc(O)cc1)NC(=O)[C@H](CC(=O)O)NC(=O)[C@H](CO)NC(=O)[C@@H](NC(=O)[C@H](Cc1ccccc1)NC(=O)[C@@H](NC(=O)CNC(=O)[C@H](CCC(=O)O)NC(=O)CCNC(=O)C(C)(C)c1cc(F)cc(C#N)c1)[C@@H](C)O)[C@@H](C)O)C(=O)N[C@@H](Cc1ccc(O)cc1)C(=O)N[C@@H](CC(C)C)C(=O)N[C@@H](CC(=O)O)C(=O)N[C@@H](CCCCN)C(=O)N[C@@H](CCC(N)=O)C(=O)N[C@@H](C)C(=O)N[C@@H](C)C(=O)NC(C)(C)C(=O)N[C@@H](CCC(=O)O)C(=O)N[C@@H](Cc1ccccc1)C(=O)N[C@H](C(=O)N[C@@H](CCCCNC(=O)COCCOCCNC(=O)COCCOCCNC(=O)CC[C@H](NC(=O)CCCCCCCCCCCCCCCCCCC(=O)O)C(=O)O)C(=O)N[C@@H](Cc1c[nH]c2ccccc12)C(=O)N[C@@H](CC(C)C)C(=O)N[C@@H](CC(C)C)C(=O)N[C@@H](C)C(=O)NCC(=O)NCC(=O)N1CCC[C@H]1C(=O)N[C@@H](CO)C(=O)N[C@@H](CO)C(=O)NCC(=O)N[C@@H](C)C(=O)N1CCC[C@H]1C(=O)N1CCC[C@H]1C(=O)N1CCC[C@H]1C(=O)N[C@@H](CO)C(N)=O)C(C)C [Compound 103] ({Isobutyryl(2-(3-CN-5-F-Ph))-βAla}-EGTFTSDYSIYLDKQAA[Aib]EFVK([AEEA-AEEA-γGlu-C20 diacid])WLLAGGPSSGAPPPS-NH2) | < 6.00 | 9.00 to 10.00 | 89 | 7.00 to 8.00 | 96 | < 6.00
5 | CC[C@H](C)[C@H](NC(=O)[C@H](CC(C)C)NC(=O)[C@H](Cc1c[nH]c2ccccc12)NC(=O)[C@H](CCC(N)=O)NC(=O)[C@@H](NC(=O)[C@H](Cc1ccccc1)NC(=O)[C@H](C)NC(=O)[C@H](CCCCNC(=O)COCCOCCNC(=O)COCCOCCNC(=O)CC[C@H](NC(=O)CCCCCCCCCCCCCCCCCCC(=O)O)C(=O)O)NC(=O)[C@H](CCC(N)=O)NC(=O)[C@H](C)NC(=O)[C@@H](NC(=O)[C@H](CCCCN)NC(=O)[C@H](CC(=O)O)NC(=O)[C@H](CC(C)C)NC(=O)C(C)(C)NC(=O)[C@@H](NC(=O)[C@H](CO)NC(=O)[C@H](Cc1ccc(O)cc1)NC(=O)[C@H](CC(=O)O)NC(=O)[C@H](CO)NC(=O)[C@@H](NC(=O)[C@H](Cc1ccccc1)NC(=O)[C@@H](NC(=O)CNC(=O)[C@H](CCC(=O)O)NC(=O)CCNCCN1C(=O)COc2ccccc21)[C@@H](C)O)[C@@H](C)O)[C@@H](C)CC)[C@@H](C)CC)C(C)C)C(=O)N[C@@H](C)C(=O)NCC(=O)NCC(=O)N1CCC[C@H]1C(=O)N[C@@H](CO)C(=O)N[C@@H](CO)C(=O)NCC(=O)N[C@@H](C)C(=O)N1CCC[C@H]1C(=O)N1CCC[C@H]1C(=O)N1CCC[C@H]1C(=O)N[C@@H](CO)C(N)=O [Compound 276] (X19-EGTFTSDYSI[Aib]LDKIAQK([AEEA-AEEA-γGlu-C20 diacid])AFVQWLIAGGPSSGAPPPS-NH2) | < 6.00 | 7.00 to 8.00 | 95 | 6.00 to 7.00 | 35 | < 6.00
